Assay results from patent publication US10239843B2 (CANCER RESEARCH TECHNOLOGY LIMITED, priority 2014, dated 2019).

molecular target: Human Full Length PARG (Homo sapiens (Human), UniProt Q86W56); assay: PARG enzyme assay (TR-FRET); type: biochemical; settings: read-out: PARG Biochem IC50
Sequence (Q86W56 whole entry): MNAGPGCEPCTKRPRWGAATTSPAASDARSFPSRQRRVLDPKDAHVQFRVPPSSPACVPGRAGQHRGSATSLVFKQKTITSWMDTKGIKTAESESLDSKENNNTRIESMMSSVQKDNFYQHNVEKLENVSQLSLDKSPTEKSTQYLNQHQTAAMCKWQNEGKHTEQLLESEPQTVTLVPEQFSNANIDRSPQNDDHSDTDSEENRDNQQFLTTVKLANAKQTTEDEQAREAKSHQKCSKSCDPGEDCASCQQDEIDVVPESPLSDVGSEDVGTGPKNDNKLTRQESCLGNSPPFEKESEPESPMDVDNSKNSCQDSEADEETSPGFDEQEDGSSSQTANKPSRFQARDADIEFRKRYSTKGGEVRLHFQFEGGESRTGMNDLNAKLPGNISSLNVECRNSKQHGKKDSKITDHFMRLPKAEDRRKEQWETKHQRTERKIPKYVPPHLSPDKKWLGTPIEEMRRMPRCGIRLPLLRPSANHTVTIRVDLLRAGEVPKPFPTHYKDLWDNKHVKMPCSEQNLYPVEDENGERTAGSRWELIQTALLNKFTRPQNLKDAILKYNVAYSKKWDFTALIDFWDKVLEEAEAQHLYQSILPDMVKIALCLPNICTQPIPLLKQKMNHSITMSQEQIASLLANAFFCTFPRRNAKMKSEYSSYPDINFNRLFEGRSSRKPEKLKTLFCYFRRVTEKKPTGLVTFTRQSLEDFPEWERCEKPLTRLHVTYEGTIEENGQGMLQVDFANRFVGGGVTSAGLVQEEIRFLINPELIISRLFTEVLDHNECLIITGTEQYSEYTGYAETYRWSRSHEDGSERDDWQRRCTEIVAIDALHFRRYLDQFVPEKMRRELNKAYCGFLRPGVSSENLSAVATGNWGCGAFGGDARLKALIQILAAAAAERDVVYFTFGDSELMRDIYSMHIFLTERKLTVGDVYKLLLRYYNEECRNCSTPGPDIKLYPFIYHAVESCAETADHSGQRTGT

IC50 [nM]	SMILES
3470	CC1(NS(=O)(=O)c2cc3c4c(cccc4c2)C(=O)NC3=O)CC1 [Example 447, N-(1-Methylcyclopropyl)-1,3-dioxo-benzo[de]isoquinoline-5-sulfonamide]

same assay, conditions: read-out: PARG Biochem IC50 Geomean

SMILES	IC50 [nM]
Cc1cc(Cn2cc(Cl)c3ccc(S(=O)(=O)NC4(C)CC4)cc3c2=O)on1 [Example 209, 4-Chloro-N-(1-methylcyclopropyl)-2-[(3-methylisoxazol-5-yl)methyl]-1-oxo-isoquinoline-7-sulfonamide]	1640
Cn1c(=O)[nH]c2cc(F)c(S(=O)(=O)NC3(C)CC3)cc2c1=O [Example 211, 7-Fluoro-3-methyl-N-(1-methylcyclopropyl)-2,4-dioxo-1H-quinazoline-6-sulfonamide]	1560
COc1ccc(Cn2cc(Cn3c(=O)c4cc(S(=O)(=O)NC5(C)CC5)ccc4n(C)c3=O)cn2)cc1 [Example 212]	1370
CN(C)CCn1cc(Cn2c(=O)c3cc(S(=O)(=O)NC4(C)CC4)ccc3n(C)c2=O)cn1 [Example 219]	2480
CC1(NS(=O)(=O)c2ccc3[nH]c(=O)n(CC(N)=O)c(=O)c3c2)CC1 [Example 223, 2-[6-[(1-Methylcyclopropyl)sulfamoyl]-2,4-dioxo-1H-quinazolin-3-yl]acetamide]	7470
Cn1c(=O)c2cc(S(=O)(=O)NC3(C)CC3)c(F)cc2n(C)c1=O [Example 224]	1440
Cn1c(=O)c2cc(S(=O)(=O)NC3(C)CC3)cc(F)c2n(C)c1=O [Example 225]	7490
Cn1nc(Cl)c2ccc(S(=O)(=O)NC3(C)CC3)cc2c1=O [Example 227, 1-Chloro-3-methyl-N-(1-methylcyclopropyl)-4-oxo-phthalazine-6-sulfonamide]	5140
CNc1nn(C)c(=O)c2cc(S(=O)(=O)NC3(C)CC3)ccc12 [Example 234, 3-Methyl-1-(methylamino)-N-(1-methylcyclopropyl)-4-oxo-phthalazine-6-sulfonamide]	1980
CN1CCCC(Cn2c(=O)n(Cc3cnn(C)c3)c(=O)c3cc(S(=O)(=O)NC4(C)CC4)ccc32)C1 (centres unmarked) [Example 236]	6740
CC1(NS(=O)(=O)c2ccc3[nH]c(=O)n(C4CC4)c(=O)c3c2)CC1 [Example 240, 3-Cyclopropyl-N-(1-methylcyclopropyl)-2,4-dioxo-1H-quinazoline-6-sulfonamide]	4120
Cc1cc(Cn2ccc3ccc(S(=O)(=O)NC4(C)CC4)cc3c2=O)on1 [Example 242, N-(1-Methylcyclopropyl)-2-[(3-methylisoxazol-5-yl)methyl]-1-oxo-isoquinoline-7-sulfonamide]	7350
Cn1cc(-c2ccc(F)cc2)c2ccc(S(=O)(=O)NC3(C)CC3)cc2c1=O [Example 255, 4-(4-Fluorophenyl)-2-methyl-N-(1-methylcyclopropyl)-1-oxo-isoquinoline-7-sulfonamide]	8520
Cc1cc(Cn2c(=O)c3cc(S(=O)(=O)NC4CC4)ccc3n(C)c2=O)on1 [Example 260]	3790
CCC1(NS(=O)(=O)c2ccc3c(c2)c(=O)n(Cc2cc(C)no2)c(=O)n3C)CC1 [Example 261]	3040
Cc1cc(Cn2nc(C(=O)O)c3ccc(S(=O)(=O)NC4(C)CC4)cc3c2=O)on1 [Example 302, 6-(N-(1-Methylcyclopropyl)sulfamoyl)-3-((3-methylisoxazol-5-yl)methyl)-4-oxo-3,4-dihydrophthalazine-1-carboxylic acid]	6720
Cc1cc(Cn2cc(Br)c3ccc(S(=O)(=O)NC4(C)CC4)cc3c2=O)on1 [Example 307, 4-Bromo-N-(1-methylcyclopropyl)-2-[(3-methylisoxazol-5-yl)methyl]-1-oxo-isoquinoline-7-sulfonamide]	2680
Cc1cc(Cn2nc(C3CCCC3)c3ccc(S(=O)(=O)NC4(C)CC4)cc3c2=O)on1 [Example 309]	2520
Cc1cc(Cn2nc(CC3CCCCC3)c3ccc(S(=O)(=O)NC4(C)CC4)cc3c2=O)on1 [Example 314]	1370
Cc1cc(Cn2cc(Cc3ccc(F)cc3)c3ccc(S(=O)(=O)NC4(C)CC4)cc3c2=O)on1 [Example 322, 4-[(4-Fluorophenyl)methyl]-N-(1-methylcyclopropyl)-2-[(3-methylisoxazol-5-yl)methyl]-1-oxo-isoquinoline-7-sulfonamide]	2100
Cc1cc(Cn2nc(C(=O)N(C)C)c3ccc(S(=O)(=O)NC4(C)CC4)cc3c2=O)on1 [Example 326]	8630
Cn1cc(Cn2c(=O)c3cc(S(=O)(=O)NC4(C)CC4)ccc3n(CCN3CCCC3=O)c2=O)cn1 [Example 334]	4220

More lines, now with the values ahead:

IC50 [nM]	SMILES
1230	Cc1cc(Cn2cnc3ccc(S(=O)(=O)NC4(C)CC4)cc3c2=O)on1 [Example 210]
592	Cn1c(=O)n(Cc2cnn(Cc3ccccc3)c2)c(=O)c2cc(S(=O)(=O)NC3(C)CC3)ccc21 [Example 215]
560	C#CCn1cc(Cn2c(=O)c3cc(S(=O)(=O)NC4(C)CC4)ccc3n(C)c2=O)cn1 [Example 216]
681	Cn1c(=O)n(Cc2cnn(CC3CC3)c2)c(=O)c2cc(S(=O)(=O)NC3(C)CC3)ccc21 [Example 218]
649	Cc1cc(Cn2c(=O)[nH]c3ccc(S(=O)(=O)NC4(C)CC4)cc3c2=O)on1 [Example 221, N-(1-methylcyclopropyl)-3-[(3-isoxazol-5-yl)methyl]-2,4-dioxo-1H-quinazoline-6-sulfonamide]
1180	Cn1c(=O)n(Cc2ccno2)c(=O)c2cc(S(=O)(=O)NC3(C)CC3)ccc21 [Example 226]
642	Cc1cc(Cn2c(=O)n(C3CC3)c(=O)c3cc(S(=O)(=O)NC4(C)CC4)ccc32)n(C)n1 [Example 241]
666	CNc1nn(Cc2cc(C)no2)c(=O)c2cc(S(=O)(=O)NC3(C)CC3)ccc12 [Example 244, 1-(methylamino)-N-(1-methylcyclopropyl)-3-[(3-methylisoxazol-5-yl)methyl]-4-oxo-phthalazine-6-sulfonamide]
521	Cc1cc(Cn2c(=O)c3cc(S(=O)(=O)NC4(C)CC4)ccc3n(CCN3CCCC3)c2=O)on1 [Example 248]
1280	Cc1cc(Cn2cc(C)c3ccc(S(=O)(=O)NC4(C)CC4)cc3c2=O)on1 [Example 256, 4-Methyl-N-(1-methylcyclopropyl)-2-[(3-methylisoxazol-5-yl)methyl]-1-oxo-isoquinoline-7-sulfonamide]
1110	Cc1cc(Cn2nc(Cl)c3ccc(S(=O)(=O)NC4(C)CC4)cc3c2=O)on1 [Example 262, 1-Chloro-N-(1-methylcyclopropyl)-3-[(3-methylisoxazol-5-yl)methyl]-4-oxo-phthalazine-6-sulfonamide]
526	Cc1cc(Cn2c(=O)c3cc(S(=O)(=O)NC4(C)CC4)ccc3n(CCN3CCCCC3)c2=O)on1 [Example 278]
638	Cc1cc(Cn2nc(N(C)C)c3ccc(S(=O)(=O)NC4(C)CC4)cc3c2=O)on1 [Example 282]
512	Cc1cc(Cn2nc(C#CCN(C)C)c3ccc(S(=O)(=O)NC4(C)CC4)cc3c2=O)on1 [Example 283, 1-[3-(dimethylamino)prop-1-ynyl]-N-(1-methylcyclopropyl)-3-[(3-methylisoxazol-5-yl)methyl]-4-oxo-phthalazine-6-sulfonamide]
1180	Cc1cc(Cn2nc(C)c3ccc(S(=O)(=O)NC4(C)CC4)cc3c2=O)on1 [Example 284, 1-methyl-N-(1-methylcyclopropyl)-3-[(3-methylisoxazol-5-yl)methyl]-4-oxo-phthalazine-6-sulfonamide]
842	Cc1cc(Cn2cc(C#CCN(C)C)c3ccc(S(=O)(=O)NC4(C)CC4)cc3c2=O)on1 [Example 286, 4-[3-(Dimethylamino)prop-1-ynyl]-N-(1-methylcyclopropyl)-2-[(3-methylisoxazol-5-yl)methyl]-1-oxo-isoquinoline-7-sulfonamide]
1070	Cc1cc(Cn2cc(CCCN(C)C)c3ccc(S(=O)(=O)NC4(C)CC4)cc3c2=O)on1 [Example 287, 4-[3-(dimethylamino)propyl]-N-(1-methylcyclopropyl)-2-[(3-methylisoxazol-5-yl)methyl]-1-oxo-isoquinoline-7-sulfonamide]
1270	Cc1cc(Cn2ncc3ccc(S(=O)(=O)NC4(C)CC4)cc3c2=O)on1 [Example 299, N-(1-Methylcyclopropyl)-3-[(3-methylisoxazol-5-yl)methyl]-4-oxo-phthalazine-6-sulfonamide]
836	COC(=O)c1nn(Cc2cc(C)no2)c(=O)c2cc(S(=O)(=O)NC3(C)CC3)ccc12 [Example 301]
800	CNC(=O)c1nn(Cc2cc(C)no2)c(=O)c2cc(S(=O)(=O)NC3(C)CC3)ccc12 [Example 303]
1230	COc1nn(Cc2cc(C)no2)c(=O)c2cc(S(=O)(=O)NC3(C)CC3)ccc12 [Example 312, 1-Methoxy-N-(1-methylcyclopropyl)-3-[(3-methylisoxazol-5-yl)methyl]-4-oxo-phthalazine-6-sulfonamide]
871	COc1cccc(Cc2nn(Cc3cc(C)no3)c(=O)c3cc(S(=O)(=O)NC4(C)CC4)ccc23)c1 [Example 315]
737	CCOc1nn(Cc2cc(C)no2)c(=O)c2cc(S(=O)(=O)NC3(C)CC3)ccc12 [Example 316, 1-Ethoxy-N-(1-methylcyclopropyl)-3-[(3-methylisoxazol-5-yl)methyl]-4-oxo-phthalazine-6-sulfonamide]
859	Cc1cc(Cn2nc(OC3CCC3)c3ccc(S(=O)(=O)NC4(C)CC4)cc3c2=O)on1 [Example 319]
674	Cc1cc(Cn2nc(CC3CCC3)c3ccc(S(=O)(=O)NC4(C)CC4)cc3c2=O)on1 [Example 320]
795	Cc1cc(Cn2nc(C(=O)NCC3CCOCC3)c3ccc(S(=O)(=O)NC4(C)CC4)cc3c2=O)on1 [Example 331]
781	Cc1cc(Cn2nc(C(=O)NCC3CCN(C)CC3)c3ccc(S(=O)(=O)NC4(C)CC4)cc3c2=O)on1 [Example 333]
1050	CCOC(=O)C(F)n1c(=O)n(Cc2cc(C)no2)c(=O)c2cc(S(=O)(=O)NC3(C)CC3)ccc21 (centres unmarked) [Example 335]
523	Cc1cc(Cn2c(=O)c3cc(S(=O)(=O)NC4(C)CC4)ccc3n(CC(C)O)c2=O)on1 (centres unmarked) [Example 338]
511	Cc1cc(Cn2c(=O)c3cc(S(=O)(=O)NC4(C)CC4)ccc3n(CCN3CCN(C)CC3)c2=O)on1 [Example 341]
